The values that follow come from PubChem BioAssay AID2060494 (Molecular Pharmacology Branch, DTP, NCI, 2025).

Several values for one entry are separate records, joined by “and”; a condition that tells them apart may be missing. Equal values may be shown once.

This experiment concerns 435261-313-R-J1-PDC complex spheroid viability. The experiment can be described thus: Anticancer human tumor 435261-313-R-J1-PDC patient-derived colon adenocarcinoma cell line growth inhibition [GQUAD]. The note with it: for viability, T/C: stronger effect = lower value. The source says:
DNA G-quadruplex Stabilizer Agents in Combinations in Complex Spheroids
A high-throughput screen of multi-cell type tumor spheroids was designed to identify active combinations of DNA G-quadruplex stabilizer agents and targeted small molecules. Complex spheroids include a stromal component modeled by human endothelial cells (HUVEC) and fibroblasts modeled by human mesenchymal stem cells (MSCs). The concentration ranges selected for each drug and investigational agent were based upon clinically achievable concentrations if the clinical Cmax of the agent was known.
Compounds. The drugs and investigational agents: pidnarulex (CX-5461; NSC782164), APTO-253 (NSC789042), BRACO-19 (NSC847499), peposertib (NSC802822), ceralasertib (NSC780249), elimusertib (NSC800525), camonsertib (NSC841442), AZD-1390 (NSC803789), olaparib (NSC753686), talazoparib (NSC767125), ART-558 (NSC835418), sotorasib (NSC818433), MRTX-1133 (NSC836407), SN-38 (NSC673596), topotecan (NSC609699), etoposide (NSC141540), doxorubicin (NSC123127), gemcitabine (NSC613327), 5-fluorouracil (NSC19893), paclitaxel (NSC125973), vemurafenib (NSC761431), panobinostat (NSC761190), R-306465 (JNJ-16241199; NSC773264), adavosertib (NSC754352), TP-3654 (NSC805149), carboplatin (NSC241240), KSQ-4279 (NSC840948), and staurosporine (NSC755774) were obtained from the National Cancer Institute (NCI) Developmental Therapeutics Program Chemical Repository (34). The FDA-approved anticancer drug set is available from the NCI Developmental Therapeutics Program. […] The stock solutions were prepared in dimethyl sulfoxide (DMSO, Sigma-Aldrich, St. Louis, MO, cat. D2650) at 800-fold the tested concentration and stored at -70 degrees C prior to their use. All drugs and investigational agents were tested over a range starting from a high concentration at or near the clinical Cmax and decreasing in half-log increments. If the clinical Cmax for an agent had not been determined, the highest concentration tested was 10 microM.
2.3 Cell Culture. All cells were maintained in an incubator at 37 degrees C and 5% CO2 with 95% humidity. The PDC lines were cultured according to standard operating procedures established by the NCI PDMR. All PDCs were thawed and cultured in Matrigel-coated flasks prepared with a working solution of 1X Ham's F-12 nutrient mix, without supplementation (Invitrogen, cat. 11765054), 100 U/mL penicillin-streptomycin (Invitrogen, cat. 15140122), and 2.5% Matrigel (Corning Inc., cat. 354248) for the first three passages. The 857933-349-R-J2-PDC line was cultured in 6C/Colon 1B media, which includes advanced DMEM/F-12 (Thermo Fisher Scientific, cat. 12634028), 10 mM HEPES (Thermo Fisher Scientific, cat. 15630080), 1X GlutaMAX supplement (Thermo Fisher Scientific, cat. 35050061), 0.1 mg/mL primocin (InvivoGen, cat. ant-pm-2), 10% defined fetal bovine serum, heat inactivated (HyClone Laboratories Inc., cat. SH30070.03HI), 50% L-WRN conditioned media (ATCC, cat. CRL-3276), 1.25 mM N-Acetyl-L-cysteine (Sigma-Aldrich, cat. A9165), 10 mM nicotinamide (Sigma-Aldrich, cat. N0636), 1X B-27 supplement (Thermo Fisher Scientific, cat. 17504044), 1X N-2 supplement (Thermo Fisher Scientific, cat. 17502048), 10 microM Y-27632 dihydrochloride (Tocris Bioscience, cat. 1254), and 50 ng/mL human EGF recombinant protein (Thermo Fisher Scientific, cat. PHG0311). The 485176-168-R4-J1-PDC line was cultured in Panc media, which includes all 6C/Colon 1B media components plus 100 ng/mL human FGF-10 (Thermo Fisher Scientific, cat. 100-26), 500 nM SB-431542 (Selleckchem, cat. S1067), and gastrin (Tocris, cat. 3006).
[…]
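Also: spheroids exposed to the agents for seven days before readout.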
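For viability, T/C in this document: percent of vehicle control viability with DMSO wells as 100%.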

For the compound `C=CC(=O)N1CCN(c2nc(=O)n(-c3c(C)ccnc3C(C)C)c3nc(-c4c(O)cccc4F)c(F)cc23)C(C)C1` (stereo unspecified), the viability, T/C runs as follows: (compound 0.0316 µM) 113% and 111% and 86%; (compound 0.1 µM) 96% and 101% and 88.2%; (compound 0.316 µM) 127% and 125% and 132%; (compound 1 µM) 106% (2×) and 75.7%; (compound 3.16 µM) 134% and 124% and 116%; (compound 10 µM) 110% and 131% and 101%. For the same compound, the concentration for half-maximal inhibition (IC50) (curve of compound) is over 10000 nM.
As to `CCCS(=O)(=O)Nc1ccc(F)c(C(=O)c2c[nH]c3ncc(-c4ccc(Cl)cc4)cc23)c1F`, the viability, T/C is, setting by setting: (compound 0.0316 µM) 105% and 95%; (compound 0.1 µM) 69.6% and 103%; (compound 0.316 µM) 118% and 139%; (compound 1 µM) 82.9% and 104%; (compound 3.16 µM) 63.1% and 88.8%; (compound 10 µM) 14.7% and 13.4%. Further, the concentration for half-maximal inhibition (IC50) (curve of compound) is 4250 nM and 5710 nM.
`CC[C@@]1(O)C(=O)OCc2c1cc1n(c2=O)Cc2cc3c(CN(C)C)c(O)ccc3nc2-1`: the viability, T/C is, setting by setting: (compound 0.000999 µM) 126% and 101% and 118%; (compound 0.00316 µM) 61.6% and 94.8% and 94.1%; (compound 0.00999 µM) 96.5% and 98.2% and 110%; (compound 0.0316 µM) 85.8% and 74.4% and 89.1%; (compound 0.0999 µM) 75.2% and 72.1% and 83.8%; (compound 0.316 µM) 59% and 68.4% and 67.3%. In addition, where the note is “curve of compound”, the IC50 was over 316 nM.
Regarding `COc1ccc([C@@H](O)c2cc(-c3ncnc4cc(N5CCOCC5)ccc34)c(F)cc2Cl)nn1` + Cc1cnc(CNC(=O)c2c(=O)c3ccc(N4CCCN(C)CC4)nc3n3c2sc2ccccc23)cn1, the concentration for half-maximal inhibition (IC50) runs as follows: (curve of first compound, second compound 0.0316 µM) 631 nM; (curve of first compound, second compound 0.1 µM) 392 nM; (curve of first compound, second compound 0.316 µM) 157 nM; (curve of first compound, second compound 1 µM) under 31.6 nM; (curve of first compound, second compound 3.16 µM) under 31.6 nM; (curve of first compound, second compound 10 µM) under 31.6 nM. Moreover, the viability, T/C was 59.5% (second compound 0.0316 µM, first compound 0.0316 µM); 67.4% (second compound 0.0316 µM, first compound 0.1 µM); 71.8% (second compound 0.0316 µM, first compound 0.316 µM); 39.2% (second compound 0.0316 µM, first compound 1 µM); 27.8% (second compound 0.0316 µM, first compound 3.16 µM); 20.3% (second compound 0.0316 µM, first compound 10 µM). The viability, T/C runs as follows: (second compound 0.1 µM, first compound 0.0316 µM) 49.8%; (second compound 0.1 µM, first compound 0.1 µM) 65%; (second compound 0.1 µM, first compound 0.316 µM) 48.9%; (second compound 0.1 µM, first compound 1 µM) 41.4%; (second compound 0.1 µM, first compound 3.16 µM) 26.3%; (second compound 0.1 µM, first compound 10 µM) 16.8%. Moreover, the viability, T/C by setting is: (second compound 0.316 µM, first compound 0.0316 µM) 47.6%; (second compound 0.316 µM, first compound 0.1 µM) 60.9%; (second compound 0.316 µM, first compound 0.316 µM) 44.6%; (second compound 0.316 µM, first compound 1 µM) 34.8%; (second compound 0.316 µM, first compound 3.16 µM) 25.6%; (second compound 0.316 µM, first compound 10 µM) 13.4%. Moreover, the viability, T/C is 32.3% (second compound 1 µM, first compound 0.0316 µM); 42.6% (second compound 1 µM, first compound 0.1 µM); 34.8% (second compound 1 µM, first compound 0.316 µM); 28.4% (second compound 1 µM, first compound 1 µM); 17.2% (second compound 1 µM, first compound 3.16 µM); 5.89% (second compound 1 µM, first compound 10 µM). Further, the viability, T/C (second compound 3.16 µM, first compound 0.0316 µM) was 5.04%; the viability, T/C (second compound 3.16 µM, first compound 0.1 µM) is 14.9%; the viability, T/C (second compound 3.16 µM, first compound 0.316 µM) was 16.5%; the viability, T/C (second compound 3.16 µM, first compound 1 µM) was 0.16%; the viability, T/C (second compound 3.16 µM, first compound 3.16 µM) was 0.14%; the viability, T/C (second compound 3.16 µM, first compound 10 µM) is 0.29%. For the same compound, the viability, T/C is, setting by setting: (second compound 10 µM, first compound 0.0316 µM) 0.11%; (second compound 10 µM, first compound 0.1 µM) 0.16%; (second compound 10 µM, first compound 0.316 µM) 0.16%; (second compound 10 µM, first compound 1 µM) 0.2%; (second compound 10 µM, first compound 3.16 µM) 0.17%; (second compound 10 µM, first compound 10 µM) 0.15%.
In the case of `CC1COCCN1c1cc(-c2ccnn2C)c2ccnc(-c3ccn[nH]3)c2n1` (stereo unspecified), the viability, T/C runs as follows: (compound 0.0316 µM) 67.8% and 99.2%; (compound 0.1 µM) 53.6% and 47.4%; (compound 0.316 µM) 52.6% and 55.7%; (compound 1 µM) 38.4% and 36.9%; (compound 3.16 µM) 37.2% and 32.5%; (compound 10 µM) 20.3% and 19.5%. Also, under “curve of compound”, the IC50 was 321 nM and 203 nM.
Turning to `CC(=O)O[C@H]1C(=O)[C@@]2(C)[C@H]([C@H](OC(=O)c3ccccc3)[C@]3(O)C[C@H](OC(=O)[C@H](O)[C@@H](NC(=O)c4ccccc4)c4ccccc4)C(C)=C1C3(C)C)[C@]1(OC(C)=O)CO[C@@H]1C[C@@H]2O`, the viability, T/C by setting is: (compound 0.0316 µM) 92.9% and 82.9% and 90.8%; (compound 0.1 µM) 76.1% and 66.3% and 52.6%; (compound 0.316 µM) 68.9% and 81.9% and 51.9%; (compound 1 µM) 68.7% and 43.9% and 69.8%; (compound 3.16 µM) 68.5% and 44.5% and 67.8%; (compound 10 µM) 65.1% and 53.1% and 63.9%.
